Patent publication US11058702B2 (EMEK, Inc., priority 2014, dated 2021)

What was measured:
[1] = system: IPdR oxidase activity of human intestine cytosol
[2] = target: T1, human liver IPdR-aldehyde oxidase (Homo sapiens, UniProt Q06278); conditions: low concentrations
T1 sequence (Q06278 1-1338): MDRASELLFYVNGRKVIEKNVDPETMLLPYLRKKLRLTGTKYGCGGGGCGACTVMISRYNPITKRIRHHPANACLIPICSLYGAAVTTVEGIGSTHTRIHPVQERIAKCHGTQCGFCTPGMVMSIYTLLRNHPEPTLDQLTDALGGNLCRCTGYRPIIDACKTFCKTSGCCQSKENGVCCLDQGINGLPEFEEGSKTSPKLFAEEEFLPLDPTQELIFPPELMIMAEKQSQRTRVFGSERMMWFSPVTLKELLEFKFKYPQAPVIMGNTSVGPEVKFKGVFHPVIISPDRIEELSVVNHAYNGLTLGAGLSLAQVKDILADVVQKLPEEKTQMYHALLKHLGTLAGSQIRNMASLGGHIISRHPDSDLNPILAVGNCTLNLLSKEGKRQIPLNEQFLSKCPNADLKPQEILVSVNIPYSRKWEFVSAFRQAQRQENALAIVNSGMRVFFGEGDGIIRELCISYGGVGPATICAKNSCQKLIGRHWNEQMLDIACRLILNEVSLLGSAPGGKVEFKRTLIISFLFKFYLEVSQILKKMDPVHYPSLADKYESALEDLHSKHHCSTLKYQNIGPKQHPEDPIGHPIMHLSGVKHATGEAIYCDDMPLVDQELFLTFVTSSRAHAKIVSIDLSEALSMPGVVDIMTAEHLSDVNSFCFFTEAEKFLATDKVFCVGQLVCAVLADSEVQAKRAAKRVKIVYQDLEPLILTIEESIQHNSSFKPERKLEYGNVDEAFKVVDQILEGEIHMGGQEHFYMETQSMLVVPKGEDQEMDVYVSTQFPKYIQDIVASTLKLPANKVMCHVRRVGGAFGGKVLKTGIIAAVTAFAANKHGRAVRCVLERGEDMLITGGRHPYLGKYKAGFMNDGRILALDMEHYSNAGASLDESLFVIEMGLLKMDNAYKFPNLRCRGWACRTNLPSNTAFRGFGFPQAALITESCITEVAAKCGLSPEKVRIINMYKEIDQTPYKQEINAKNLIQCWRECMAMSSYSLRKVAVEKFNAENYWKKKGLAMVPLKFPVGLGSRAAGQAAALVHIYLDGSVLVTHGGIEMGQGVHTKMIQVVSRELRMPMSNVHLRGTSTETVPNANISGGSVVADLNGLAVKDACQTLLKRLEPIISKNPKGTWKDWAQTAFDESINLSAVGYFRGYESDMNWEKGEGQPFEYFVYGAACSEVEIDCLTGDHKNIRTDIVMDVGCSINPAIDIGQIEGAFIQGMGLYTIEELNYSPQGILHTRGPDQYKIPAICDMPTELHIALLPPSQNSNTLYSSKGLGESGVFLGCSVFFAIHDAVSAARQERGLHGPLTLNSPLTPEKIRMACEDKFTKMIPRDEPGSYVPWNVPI

[3] = system: locally advanced rectal cancer; conditions: cited from earlier work
head & neck cancers = conditions: cis-platin+definitive RT, cCR achieved; cited from earlier work

Structure (SMILES)	effect on human small intestine IPdR oxidase activity [1]	effect on human liver IPdR-aldehyde oxidase [2]	also measured
Oc1ncnc2[nH]ncc12 [allopurinol]	not inhibited	not	–
CCCCCOC(=O)Nc1nc(=O)n([C@@H]2O[C@H](C)[C@@H](O)[C@H]2O)cc1F [capecitabine]	–	–	pCR rate ([3]; neoadjuvant capecitabine+RT, Stage III rectal patients): 10-15%
N.N.[Cl][Pt][Cl] [cis-platin, cis-diamminedichloroplatinum II]	–	–	cure rate (head & neck cancers): approximately 60%
COc1ccc(C=O)cc1O [isovanillin]	not inhibited	inhibited	–
CC1=CC(=O)c2ccccc2C1=O [menadione]	stimulated	–	–
O=C1[O][Pt]2([NH][C@@H]3CCCC[C@H]3[NH]2)[O]C1=O [oxaliplatin]	–	–	effect on pCR rate when added during pre-operative RT+FP ([3]; with increased normal tissue complications): without any improvement in pCR rate
